# Laboratory results as given in US20230218681A1, “BREVUNDIMONAS SP FOR USE IN DISEASE PREVENTION AND TREATMENT” (Zivo Bioscience, Inc., priority 2021, published 2023).
# Key:
# [1] = system: Eimeria acervulina, Eimeria maxima, and Eimeria tenella; test: First study: floor-pen broilers challenged with Eimeria on Day 7, test material in feed, Days 0-28; assay type: in vivo, broiler chicks
# Description: (§1) Chicks were obtained within twelve hours of hatching from fecal contaminated flocks at a commercial hatchery on Day 0 (hatch and placement day). Three-hundred mixed-sex broiler chicks (50:50 sex ratio) were randomly assigned on Day 0 by individual weights to each of several test group pens, each with replicates. Only antibiotic-free birds were sourced, and no coccidiosis vaccine was administered at the hatchery or at any time during the study. Chicks were evaluated upon receipt for signs of disease or other complications that could affect study outcome. Weak birds were humanely sacrificed. Birds were not replaced during the study.
# (§2) Following examination, chicks were weighed and allocated to pens for the various treatment groups using a randomized block design. Weight distribution across the treatment groups was assessed prior to feeding by comparing the individual test groups' standard deviations of the mean against that of the control group. Weight distribution across the groups was considered acceptable for this study when differences between control and test groups were within one standard deviation.
# (§3) All birds received nutritionally adequate diets as pellets (crumbled pellets for Days 1-14). Birds were fed their respective treatment diets ad libitum from day of hatch to 28 days of age. (The typical average market age is 42 days.) Birds were raised on built-up litter to further mimic stress conditions typically experienced in poultry production.
# (§4) All diets were offered ad libitum without restrictions to full-fed consumption, except for an 8-hour fasting period prior to cocci-challenge on Day 7 when all birds assigned to challenge test groups received oocyst-inoculated feed containing a mixture of Eimeria acervulina, Eimeria maxima, and Eimeria tenella. Dietary requirements for protein, lysine, methionine, methionine+cystine, arginine, threonine, tryptophan, total phosphorus, available phosphorus, total calcium, dietary sodium, and dietary choline were met by adjusting the concentrations of corn and soybean meal ingredients, as well as other minor ingredients commonly used in poultry production.
# (§5) Pens were monitored for environmental conditions, including temperature, lighting, water, feed, litter condition, and unanticipated house conditions/events. Pens were checked daily for mortality. Examinations were performed on all broilers found dead or moribund. Mortalities were recorded (date and weight) and examined (both internal and external body mass).
# Cocci-Challenge—On Day 7, all birds assigned to challenged test groups received oocyst-inoculated feed containing a mixture of Eimeria acervulina, Eimeria maxima, and Eimeria tenella. Adequate feed was precisely weighed and provided to birds to consume at the rate of 100% fill-capacity on average. Prior to the challenge, all birds were starved for eight hours. Inoculated feed was provided to the birds. Following a specific time, all remaining inoculated feed was removed and weighed to assure equal consumption per pen and per bird. The quantity of feed (both placed and withdrawn) was recorded on each pen's feed record.
# Differences between groups were evaluated at P<0.05, employing Treatment x Replicate RCB (Randomized Complete Block) design. Particularly and as noted, “Significance (P<0.05)” refers to means for groups not sharing common letter designations in the figures which indicates significant difference (P<0.05) between said groups, as determined by Duncan's New Multiple Range Test (MRT 1955).
# [2] = system: Eimeria acervulina, Eimeria maxima, and Eimeria tenella; test: Second study: dried bacterial biomass feed ingredients in cocci-challenged floor-pen broilers on built-up litter, Days 1-28; assay type: in vivo, broiler chicks
# Excerpt: A second study was undertaken to determine the response and efficacy of a dried bacterial biomass feed ingredient incorporated at a specific amount into a commercial-type corn-soybean diet and fed to floor-pen raised broilers. The second study was undertaken over a 28-day period, from Day 1 to Day 28.
# The animals were raised under a disease challenge environment (cocci-challenge+built-up litter). For the study and as set forth in FIG. 15, six groups were established, including a first group that received no feed additive ingredient, a second group treated with the anti-coccidia drug Coban® (Elanco), a third group fed a Variovorax-based biomass, a fourth group fed a Brevundimonas-based biomass, a fifth group fed a Sphingomonas-based biomass, and a sixth group fed a 50:50 mixture of a Variovorax and Brevundimonas-based biomass. The feed included corn and soybean meal rations with normal nutritional formulations. No coccidiostat (except for treatment with Coban® provided to the second group) or ABF (antibiotic free products) were administered during the study. No coccidiosis vaccine was administered at the hatchery or during the course of the study.
# as §1, with “A total of 1,800 mixed sex broiler chicks were obtained” for “Chicks were obtained”, “placement day). A number of mixed-sex broiler” for “placement day). Three-hundred mixed-sex broiler”, “weights to one of several” for “weights to each of several”
# as §2, §3
# as §4, with “assigned to the challenge test” for “assigned to challenge test”
# as §5
# Cocci-Challenge—On Day 7, all birds assigned to the challenge test groups received oocyst-inoculated feed containing a mixture of Eimeria acervulina, Eimeria maxima, and Eimeria tenella. Adequate feed was precisely weighed and provided to birds to consume at the rate of 100% fill-capacity on average. […]
# [3] = cocci challenge Day 7, Days 1-28
# [4] = mortality-corrected, cocci challenge Day 7, Days 1-28
smiles,measurement,setting,value
"CC[C@@]1([C@@H]2O[C@@H]([C@H]3O[C@@](O)(CO)[C@H](C)C[C@@H]3C)C[C@@H]2C)CC[C@H]([C@]2(C)CC[C@]3(C[C@H](O)[C@@H](C)[C@@H]([C@@H](C)[C@@H](OC)[C@H](C)C(=O)O)O3)O2)O1 [Coban, Monensin, USP]",Lesion Score Ceca Day 28,[1]; Day 28,0.583
same,Lesion Score Ileum Day 28,[1]; Day 28,0.433
same,Lesion Score Duodenum Day 28,"[1]; Johnson and Reid method, Day 28",0.525
same,Avg Pen Body Weight (g) Day 28,"[1]; cocci challenge Day 7, Day 28",1430.88 g
same,Feed Intake (g/bird/day) Day 28,"[1]; cocci challenge Day 7, Day 28",89.499 g/bird/day
same,% Mortality Days 1-28,[1]; [3],1.852%
same,Feed Conversion Ratio Corrected Days 1-28,[1]; [4],1.527
same,Coccidia Incidence Score Small Intestine Day 28,[2]; Day 28,0.325
same,Lesion Score Duodenum Day 28,[2]; Day 28,0.317
same,Avg Pen Body Weight (g) Day 28,"[2]; cocci challenge Day 7, Day 28",1443.182 g
same,Feed Intake (g/bird/day) Day 28,"[2]; cocci challenge Day 7, Day 28",75.493 g/bird/day
same,% Mortality Days 1-28,[2]; [3],3.750%
same,Feed Conversion Ratio Corrected Days 1-28,[2]; [4],1.403
